Values after ≈ are worked out from the molar mass of the structure shown.
Tested on: SAUR 9218
Test: MIC Test Method, standard agar dilution
Format: cell-based
Conditions: agar dilution, Mueller Hinton agar, incubated overnight at 35° C.; lowest concentration that inhibits visible growth; read-out: SAUR 9218 MIC
Summary of the method: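 Agar dilution in Mueller Hinton agar with serial 2-fold compound dilutions. Staphylococcus aureus strain 9218 spotted at approximately 10^4 to 10^5 cells per spot, incubated overnight at 35 °C; MIC (μg/ml) is the lowest concentration preventing visible growth.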

Compound | MIC
O=C(Nc1ccc(Br)cc1C(=O)O)c1ccccn1 | > 128 µg/mL
CCCCSc1cnc(C(=O)Nc2ccc(C#N)cc2C(=O)O)cn1 | 0.125 µg/mL (≈ 0.351 µM)
O=C(Nc1ccc(Br)cc1C(=O)O)c1csc(S(=O)(=O)N2CCc3ccccc32)c1 | 2 µg/mL (≈ 3.94 µM)
CCOc1nc(SCc2ccccc2)ncc1C(=O)Nc1ccc(C#N)cc1C(=O)O | 8 µg/mL (≈ 18.4 µM)
Cn1c(/C=C/c2ccc(C#N)cc2C(=O)O)cc2ccccc21 | 64 µg/mL (≈ 212 µM)
O=C(Nc1ccc(Br)cc1C(=O)O)c1cc2cccc(S(=O)(=O)c3ccccc3)c2[nH]1 | 0.125 µg/mL (≈ 0.25 µM)
N#Cc1ccc(NC(=O)c2noc3cc(Br)ccc23)c(C(=O)O)c1 | 0.5 µg/mL (≈ 1.29 µM)
COCCOc1cccc2cc(C(=O)Nc3ccc(C#N)cc3C(=O)O)n(C)c12 | 0.25 µg/mL (≈ 0.635 µM)
CN(C)S(=O)(=O)c1ccc2onc(C(=O)Nc3ccc(C#N)cc3C(=O)O)c2c1 | 0.125 µg/mL (≈ 0.302 µM)
Cl.Cn1c(C(=O)Nc2ccc(C#N)cc2C(=O)O)cc2cccc(OCC(O)CN3CCOCC3)c21 (centres unmarked) | 1 µg/mL
CCCCCC(=O)Nc1cccc2cc(C(=O)Nc3ccc(C#N)cc3C(=O)O)[nH]c12 | 0.5 µg/mL (≈ 1.19 µM)
C=CCn1c(C(=O)Nc2ccc(Cl)cc2C(=O)O)cc2ccccc21 | 1 µg/mL (≈ 2.82 µM)
COCCOCCCSc1cnc(C(=O)Nc2ccc(C#N)cc2C(=O)O)cn1 | 1 µg/mL (≈ 2.4 µM)
O=C(Nc1ccc(Br)cc1C(=O)O)c1cccc(SCc2ccccc2)n1 | 16 µg/mL (≈ 36.1 µM)
Cn1cc(C(=O)Nc2ccc(C#N)cc2C(=O)O)c2ccccc21 | 16 µg/mL (≈ 50.1 µM)
N#Cc1ccc(NC(=O)c2ncc(-c3ccccc3C(F)(F)F)o2)c(C(=O)O)c1 | 1 µg/mL (≈ 2.49 µM)
CC(C)Oc1cccc2cc(C(=O)Nc3ccc(C#N)cc3C(=O)O)n(C)c12 | 0.125 µg/mL (≈ 0.331 µM)
N#Cc1ccc(NC(=O)c2cc3cccc(NC(=O)CCCc4ccccc4)c3[nH]2)c(C(=O)O)c1 | 0.5 µg/mL (≈ 1.07 µM)
Cn1c(C(=O)Nc2ccc(C#N)cc2C(=O)O)cc2cccc(NS(=O)(=O)CS(C)(=O)=O)c21 | 2 µg/mL (≈ 4.08 µM)
COc1ccccc1-c1cnc(C(=O)Nc2ccc(Br)cc2C(=O)O)o1 | 2 µg/mL (≈ 4.79 µM)
N#Cc1ccc(NC(=O)c2cncc(-c3cnc4ccccc4c3)c2)c(C(=O)O)c1 | > 128 µg/mL
O=C(Nc1ccc(Br)cc1C(=O)O)c1cc(Cl)nc(Cl)c1 | 32 µg/mL (≈ 82 µM)
Cn1c(C(=O)Nc2ccc(C#N)cc2C(=O)O)cc2cccc(NC(=O)c3ccc(N=[N+]=[N-])c(I)c3)c21 | > 128 µg/mL
N#Cc1ccc(NC(=O)c2noc3cc(OCc4ccccc4)ccc23)c(C(=O)O)c1 | 0.25 µg/mL (≈ 0.605 µM)
Cc1c(S(=O)(=O)Nc2ccc(F)c(Cl)c2)csc1C(=O)Nc1ccc(Br)cc1C(=O)O | 64 µg/mL (≈ 117 µM)

Compound | MIC
C=CCn1c(C(=O)Nc2ccc(C#N)cc2C(=O)O)cc2ccccc21 | 1 µg/mL (≈ 2.9 µM)
N#Cc1ccc(NC(=O)c2cc3cccc4c3n2CCC4=O)c(C(=O)O)c1 | 1 µg/mL (≈ 2.78 µM)
COc1cc(C(=O)Nc2ccc(Br)cc2C(=O)O)nn1Cc1ccccc1 | 128 µg/mL (≈ 297 µM)
N#Cc1ccc(NC(=O)c2cncc(C#CC3C=NNC3)c2)c(C(=O)O)c1 (centres unmarked) | 4 µg/mL (≈ 11.1 µM)
CCC(C)C(=O)Nc1cccc2cc(C(=O)Nc3ccc(C#N)cc3C(=O)O)[nH]c12 (centres unmarked) | 1 µg/mL (≈ 2.47 µM)
N#Cc1ccc(NC(=O)c2ccco2)c(C(=O)O)c1 | > 128 µg/mL
CCOC(=O)CC(=O)Nc1cccc2cc(C(=O)Nc3ccc(C#N)cc3C(=O)O)[nH]c12 | 0.5 µg/mL (≈ 1.15 µM)
CCCCn1c(C(=O)Nc2ccc(C#N)cc2C(=O)O)cc2ccccc21 | 32 µg/mL (≈ 88.5 µM)
O=C(O)c1cc(Br)ccc1NC(=O)c1cc(SCc2ccccc2)cc[n+]1[O-] | 8 µg/mL (≈ 17.4 µM)
CCCCCSc1cnc(C(=O)Nc2ccc(C#N)cc2C(=O)O)cn1 | 0.125 µg/mL (≈ 0.337 µM)
N#Cc1ccc(NC(=O)c2cncc(SCc3ccccc3)n2)c(C(=O)O)c1 | 64 µg/mL (≈ 164 µM)
CCCCCSc1cnc(C(=O)Nc2ccc(Cl)cc2C(=O)O)cn1 | 0.125 µg/mL (≈ 0.329 µM)
O=C(Nc1ccc(Br)cc1C(=O)O)c1cc(SCc2ccccc2)ccn1 | 2 µg/mL (≈ 4.51 µM)
CN(C)c1ccc2onc(C(=O)Nc3ccc(C#N)cc3C(=O)O)c2c1 | 0.25 µg/mL (≈ 0.714 µM)
COCCn1c(C(=O)Nc2ccc(Cl)cc2C(=O)O)cc2ccccc21 | 16 µg/mL (≈ 42.9 µM)
CCCCN1C(=O)c2ccc(C(=O)Nc3ccc(C#N)cc3C(=O)O)cc2C1=O | 4 µg/mL (≈ 10.2 µM)
COc1ccc2cc(C(=O)Nc3ccc(C#N)cc3C(=O)O)n(C)c2c1 | 0.5 µg/mL (≈ 1.43 µM)
CNS(=O)(=O)c1ccc2onc(C(=O)Nc3ccc(Br)cc3C(=O)O)c2c1 | 0.125 µg/mL (≈ 0.275 µM)
O=C(Nc1ccc(Br)cc1C(=O)O)c1cc(-c2ccc3c(c2)OCO3)on1 | 0.125 µg/mL (≈ 0.29 µM)
CCN(CC)c1ccc(NS(=O)(=O)c2csc(C(=O)Nc3ccc(Br)cc3C(=O)O)c2C)cc1 | 64 µg/mL (≈ 113 µM)
N#Cc1ccc(NC(=O)c2cc(-c3ccccc3)nc3ccccc23)c(C(=O)O)c1 | 16 µg/mL (≈ 40.7 µM)
CC(=O)Nc1ccc(-c2cc3onc(C(=O)Nc4ccc(Br)cc4C(=O)O)c3cc2NC(C)=O)c(C(F)(F)F)c1 | 0.0075 µg/mL (≈ 0.0121 µM)
CCC(C)Sc1cnc(C(=O)Nc2ccc(Cl)cc2C(=O)O)cn1 (centres unmarked) | 0.25 µg/mL (≈ 0.683 µM)
Cn1c(C(=O)Nc2ccc(C#N)cc2C(=O)O)cc2cccc(-c3ccc(S(C)(=O)=O)cc3)c21 | 8 µg/mL (≈ 16.9 µM)

More lines, now with the values ahead:

MIC | Compound
4 µg/mL (≈ 9.88 µM) | O=C(O)c1cc(Cl)ccc1NC(=O)c1cc2ccccc2n1Cc1ccccc1
0.25 µg/mL (≈ 0.548 µM) | N#Cc1ccc(NC(=O)c2cc3cccc(NC(=O)Cc4cccc(F)c4)c3[nH]2)c(C(=O)O)c1
2 µg/mL (≈ 5.76 µM) | CCCn1c(C(=O)Nc2ccc(C#N)cc2C(=O)O)cc2ccccc21
0.25 µg/mL (≈ 0.55 µM) | CCCCS(=O)(=O)Nc1cccc2cc(C(=O)Nc3ccc(C#N)cc3C(=O)O)n(C)c12
8 µg/mL (≈ 17 µM) | O=C(Nc1ccc(-c2ccccc2C(F)(F)F)cc1C(=O)O)c1cc(-c2ccccc2F)on1
0.125 µg/mL (≈ 0.261 µM) | CS(=O)(=O)N(c1ccc2onc(C(=O)Nc3ccc(C#N)cc3C(=O)O)c2c1)S(C)(=O)=O
8 µg/mL (≈ 16 µM) | CC12CCC(C(=O)Nc3cccc4cc(C(=O)Nc5ccc(C#N)cc5C(=O)O)[nH]c34)(OC1=O)C2(C)C (centres unmarked)
4 µg/mL (≈ 10.3 µM) | O=C(Nc1ccc(Br)cc1C(=O)O)c1cnc(Cl)c(Cl)c1
0.015 µg/mL (≈ 0.0405 µM) | CCCCCSc1ccc(C(=O)Nc2ccc(C#N)cc2C(=O)O)nn1
0.5 µg/mL (≈ 1.07 µM) | COCCOCCCSc1ccc(C(=O)Nc2ccc(Br)cc2C(=O)O)cn1
> 128 µg/mL | O=C(Nc1ccc(Br)cc1C(=O)O)c1cnc(CC(O)[C@H](O)CO)cn1 (some centres unmarked)
0.25 µg/mL (≈ 0.642 µM) | Cn1c(C(=O)Nc2ccc(C#N)cc2C(=O)O)cc2ccc(OCC3CC3)cc21
0.5 µg/mL (≈ 1.12 µM) | Cc1ccccc1-c1cc(C(=O)Nc2ccc(I)cc2C(=O)O)no1
2 µg/mL (≈ 5.95 µM) | COc1ccc2oc(C(=O)Nc3ccc(C#N)cc3C(=O)O)cc2c1
16 µg/mL (≈ 39.5 µM) | O=C(Nc1ccc(Br)cc1C(=O)O)c1ccc(Br)s1
0.5 µg/mL (≈ 1.04 µM) | CCOc1ccc(CC(=O)Nc2cccc3cc(C(=O)Nc4ccc(C#N)cc4C(=O)O)[nH]c23)cc1
0.5 µg/mL (≈ 0.989 µM) | Cc1noc(-c2ccccc2)c1C(=O)Nc1cccc2cc(C(=O)Nc3ccc(C#N)cc3C(=O)O)[nH]c12
0.25 µg/mL (≈ 0.529 µM) | N#Cc1ccc(NC(=O)c2cc3cccc(NC(=O)Cc4ccccc4Cl)c3[nH]2)c(C(=O)O)c1
0.5 µg/mL (≈ 1.07 µM) | CCOCCOCCOc1ccccc1-c1cc(C(=O)Nc2ccc(C#N)cc2C(=O)O)no1
0.25 µg/mL (≈ 0.677 µM) | CCC(CC)Sc1ccc(C(=O)Nc2ccc(C#N)cc2C(=O)O)cn1
0.125 µg/mL (≈ 0.28 µM) | CCCCCCCC(=O)Nc1cccc2cc(C(=O)Nc3ccc(C#N)cc3C(=O)O)[nH]c12
8 µg/mL (≈ 18.5 µM) | Cc1sc(C(=O)Nc2ccc(C#N)cc2C(=O)O)cc1S(=O)(=O)N1CCCC1C (centres unmarked)
2 µg/mL (≈ 4.64 µM) | O=C(Nc1ccc(Br)cc1C(=O)O)c1ncc(-c2ccc3c(c2)OCO3)o1
0.5 µg/mL (≈ 1.12 µM) | CCCCCNC(=O)Nc1ccc2cc(C(=O)Nc3ccc(C#N)cc3C(=O)O)n(C)c2c1
0.5 µg/mL (≈ 1.16 µM) | CCCCCCC(=O)Nc1cccc2cc(C(=O)Nc3ccc(C#N)cc3C(=O)O)[nH]c12

Reference: US20040110802A1, “Antibacterial benzoic acid derivatives” (priority 2002, published 2004)
